Reference: patent US7718645B2, “Substituted bicyclolactam compounds” (Pfizer Inc., priority 2007, dated 2010)
Read-outs that look alike come from different tables or passages of the source.

Target: T1, Human full-length diacylglycerol:acylCoA acyltransferase 1 (DGAT-1) (Homo sapiens, UniProt O75907)
T1 construct: Human full-length diacylglycerol:acylCoA acyltransferase 1 (DGAT-1) was expressed in Sf9 insect cells; made in house; host or cells: Sf9 insect cells (baculovirus)
T1 sequence (O75907 1-488): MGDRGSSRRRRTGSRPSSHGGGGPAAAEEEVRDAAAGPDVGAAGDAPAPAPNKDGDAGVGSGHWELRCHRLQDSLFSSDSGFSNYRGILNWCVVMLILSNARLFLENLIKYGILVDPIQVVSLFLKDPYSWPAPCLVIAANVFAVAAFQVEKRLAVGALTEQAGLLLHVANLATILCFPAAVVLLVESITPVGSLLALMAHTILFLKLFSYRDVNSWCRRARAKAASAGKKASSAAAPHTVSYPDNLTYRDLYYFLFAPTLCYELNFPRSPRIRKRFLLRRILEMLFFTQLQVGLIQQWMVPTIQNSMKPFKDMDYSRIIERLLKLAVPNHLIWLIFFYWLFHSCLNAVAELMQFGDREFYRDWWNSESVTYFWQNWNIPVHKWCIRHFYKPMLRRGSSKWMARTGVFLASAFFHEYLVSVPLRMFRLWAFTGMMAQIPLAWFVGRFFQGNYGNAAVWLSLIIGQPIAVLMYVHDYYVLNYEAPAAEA
Test: In vitro assay for DGAT-1 inhibition ([14C]decanoylCoA, Sf9 membrane fraction)
Format: biochemical
Procedure: Human full-length diacylglycerol:acylCoA acyltransferase 1 (DGAT-1) was expressed in Sf9 insect cells which are then lysed and a crude membrane fraction (105,000×g pellet) was prepared.
The cells were cultured as follows. Sf9 cells (20 L) were infected with 4 mL of DGAT1 Baculovirus Infected Insect Cells (BIIC) for 72 hours in a Wave Bioreactor System 20/50P (Wave Biotec/GE Healthcare).
Crude DGAT-1 microsomes were prepared as follows. Cell pellets were washed once with ice-cold Dulbecco's phosphate-buffered saline. Cells were collected in tabletop centrifuge (Beckman GS-6KR), 15 minutes, 2000×g, 4° C. Twenty (20) mL of ice-cold Microsome Buffer (MB) was added per 5 g of cell pellet. The suspension was passed through a microfluidizer 3 times (18K psi). The lysate was transferred to centrifuge tubes and centrifuged for 20 minutes at 5000×g (Beckman-Coulter, Inc. Allegra® 64R High-Speed Refrigerated Benchtop Centrifuge, F0650 rotor) at 4° C. The supernatant was transferred to Ultracentrifuge tubes and centrifuged at […] for 1 hr in a Beckman Ti-45 rotor, 4° C. The supernatant fluid was discarded. The pellet was resuspended in 70 mL of MB by sonication. The microsome concentration was determined using Bio-Rad Protein DC Protein Assay. The microsomes were filter sterilized with a 0.22 μm filter. The samples were portioned, flash frozen and stored at −80° C.
Inhibitors in DMSO were pre-incubated with membranes before initiating the DGAT-1 reaction by the addition of decanoylCoA. […] The inhibitors were present at a range of eight concentrations to generate an apparent IC50 for each compound. […] Specifically, the eight concentrations used were 10 μM, 3 μM, 1 μM, 300 nM, 100 nM, 30 nM, 10 nM and 3 nM.
The reactions were allowed to proceed for 1.5 h at room temperature and then terminated by the addition of 10 μl of HCl (0.5 M). Reaction mixtures were neutralized by the addition of 15 μl of tris(hydroxy-methyl)aminomethane (1M, pH 8.0) and then mixed by trituration with 37.5 μl of Microscint™-E (Perkin Elmer).
Where this DGAT-1 inhibition assay was performed on a compound more than once, an inhibition range is also provided for that compound.

[1] = apparent IC50, eight inhibitor concentrations 10 μM to 3 nM, read-out: IC50
[2] = inhibition range where the assay was performed on a compound more than once, read-out: IC50 range

Row | SMILES | IC50 [1] [nM] | IC50 [2] [nM]
1 | C[C@@H]1CN(c2ccc(C3CCC(CC#N)CC3)c(F)c2)C(=O)c2c(N)ncnc2O1 (stereo partly drawn) [Example 48, (R)-2-(4-(4-(4-amino-8-methyl-5-oxo-7,8-dihydropyrimido[5,4-f][1,4]oxazepin-6(5H)-yl)-2-fluorophenyl)cyclohexyl)acetonitrile] | 12.9 | 4.5 to 22.2
2 | Nc1ncnc2c1C(=O)N(c1ccc(C3CCC(C(=O)O)CC3)cc1)CCO2 (centres unmarked) [Example 49, 4-[4-(4-Amino-5-oxo-7,8-dihydro-5H-9-oxa-1,3,6-triaza-benzocyclohepten-6-yl)-phenyl]-cyclohexanecarboxylic Acid] | 7.8 | 5.8 to 10.5
3 | COC(=O)C1C2C1[C@H]1C[C@@H]2C[C@@H]1c1ccc(N2CCOc3ncnc(N)c3C2=O)cc1 (stereo partly drawn) [Example 56, (1R,5R,6S)-6-[4-(4-Amino-5-oxo-7,8-dihydro-5H-9-oxa-1,3,6-triaza-benzocyclohepten-6-yl)-phenyl]-tricyclo[3.2.1.0*2,4*]octane-3-carboxylic Acid Methyl Ester] | 78.3 | 

Continued, values first:

Row | IC50 [1] [nM] | IC50 [2] [nM] | SMILES
4 | 47.3 | 45.2 to 49.5 | COC(=O)C1CCC(c2ccc(N3CCOc4ncnc(N)c4C3=O)cc2)CC1 (centres unmarked) [Example 50, 4-[4-(4-Amino-5-oxo-7,8-dihydro-5H-9-oxa-1,3,6-triaza-benzocyclohepten-6-yl)-phenyl]-cyclohexanecarboxylic Acid Methyl Ester]
5 | 254 |  | COC(=O)Cc1ccc(Oc2ccc(N3CCOc4ncnc(N)c4C3=O)cc2)cc1 [Example 54, Methyl {4-[4-(4-amino-5-oxo-7,8-dihydropyrimido[5,4-f][1,4]oxazepin-6(5H)-yl)phenoxy]phenyl}acetate]
